# Reference: doi:10.1101/2024.10.10.617599v1 (biorxiv, 2024)
# Where a name gives a salt, the structure may show the parent alone.
# What was measured:
# hP2Y12R = hP2Y12R (Homo sapiens, UniProt Q9H244); assay: radioligand displacement of [3H]AZ12464237; format: binding
# rP2Y12R [1] = target: T1, rP2Y12R (Rattus norvegicus, UniProt Q9EPX4); assay: radioligand saturation binding, HEK […] membranes
# rP2Y12R [2] = target: T1, rP2Y12R; assay: radioligand displacement of [3H]AZ12464237; format: binding
# Sequence of hP2Y12R (Q9H244 whole entry): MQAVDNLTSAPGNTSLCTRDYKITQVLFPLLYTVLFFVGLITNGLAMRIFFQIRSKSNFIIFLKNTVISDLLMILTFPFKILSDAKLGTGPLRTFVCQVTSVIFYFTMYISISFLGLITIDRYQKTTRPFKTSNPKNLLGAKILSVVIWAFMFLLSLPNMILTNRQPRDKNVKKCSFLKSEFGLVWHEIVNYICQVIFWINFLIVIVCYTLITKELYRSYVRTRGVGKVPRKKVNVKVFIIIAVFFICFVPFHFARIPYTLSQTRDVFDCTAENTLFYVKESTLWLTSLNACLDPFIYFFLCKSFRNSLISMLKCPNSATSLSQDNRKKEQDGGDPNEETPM
# T1 sequence (Q9EPX4 whole entry): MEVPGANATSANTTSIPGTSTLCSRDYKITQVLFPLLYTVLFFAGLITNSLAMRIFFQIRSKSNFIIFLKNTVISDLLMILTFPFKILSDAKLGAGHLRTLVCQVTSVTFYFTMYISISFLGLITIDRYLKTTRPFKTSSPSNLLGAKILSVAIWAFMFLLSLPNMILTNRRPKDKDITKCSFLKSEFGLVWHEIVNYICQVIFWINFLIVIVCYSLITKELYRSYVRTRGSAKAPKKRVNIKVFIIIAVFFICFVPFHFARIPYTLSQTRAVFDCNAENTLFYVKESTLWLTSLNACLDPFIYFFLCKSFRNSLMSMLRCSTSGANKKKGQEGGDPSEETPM
SMILES,Ki (hP2Y12R),Kd (rP2Y12R [1]),Ki (rP2Y12R [2])
"CSc1nc(N)c2ncn([C@@H]3O[C@H](COP(=O)(O)OP(=O)(O)O)[C@@H](O)[C@H]3O)c2n1 [2MeSADP, 2-methylthio-adenosine-5’-diphosphate]",18.9 ± 2.61 nM,–,–
"CCOC(=O)c1cc(C#N)c(N2CC(NC(=O)NS(=O)(=O)c3ccc(Cl)s3)C2)nc1C [AZ12464237, Ethyl 6-(3-(3-((5-chlorothiophen-2-yl)sulfonyl)ureido)azetidin-1-yl)-5-cyano-2-methylnicotinate]",–,16.6 ± 3.37 nM,–
"CCOC(=O)c1cc(C#N)c(N2CCC(C(=O)NS(=O)(=O)Cc3ccccc3)CC2)nc1C [AZD1283, Ethyl 5-cyano-2-methyl-6-[4-[[[(phenylmethyl)sulfonyl]amino]carbonyl]-1-piperidinyl]-3-pyridinecarboxylate]",2.66 ± 0.6 nM,–,–
"Cc1nc(N=Nc2cc([N+](=O)[O-])ccc2Cl)c(COP(=O)(O)O)c(C=O)c1O [MRS2211, 2-[(2-chloro-5-nitrophenyl)azo]-5-hydroxy-6-methyl-3-[(phosphonooxy)methyl]-4-pyridinecarboxaldehyde disodium salt]",3240 ± 1850 nM,–,–
S=C=Nc1cccc(NC(=S)NCCCCNC(=S)Nc2cccc(N=C=S)c2)c1 [MRS2578],> 100000 nM,–,–
"O=C(O)c1cc(-c2ccc(C3CCNCC3)cc2)c2ccc(-c3ccc(C(F)(F)F)cc3)cc2c1 [PPTN·HCl, 4-[4-(4-piperidinyl)phenyl]-7-[4-(trifluoromethyl)phenyl]-2-naphthalenecarboxylic acid hydrochloride]",> 10000 nM,–,–
Nc1c(S(=O)(=O)O)cc(Nc2ccc(Nc3ccccc3)c(S(=O)(=O)O)c2)c2c1C(=O)c1ccccc1C2=O [PSB0739],25.6 ± 3.05 nM,–,–
"CNc1cc2[nH]c(=O)n(-c3ccc(NC(=O)NS(=O)(=O)c4ccc(Cl)s4)cc3)c(=O)c2cc1F [elinogrel, 5-chloro-N-[[[4-[6-Fluoro-1,4-dihydro-7-(methylamino)-2,4-dioxo-3(2H)-quinazolinyl]phenyl]amino]carbonyl]-2-thiophenesulfonamide]",7 ± 0.54 nM,–,55 ± 14.3 nM
CCCSc1nc(N[C@@H]2C[C@H]2c2ccc(F)c(F)c2)c2nnn([C@@H]3C[C@H](OCCO)[C@@H](O)[C@H]3O)c2n1 [ticagrelor],20.1 ± 0.25 nM,–,48.8 ± 15.2 nM
